Drawing on patent US20240383923A1, “HETEROARYL DERIVATIVE AND USE THEREOF” (VORONOI INC., priority 2022, published 2024), this text covers GI50 for 22 molecules.

Assay [1] has as its system BT-474 cancer cells. As to the kind of experiment: Inhibition of BT-474 cell proliferation (CellTiter-Glo). It is filed as cell-based. As to conditions: Homo sapiens, BT-474 cells, 120 hours. Summed up:
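BT-474 cells in RPMI-1640 with 20% FBS, seeded 48 h before dosing with 11 three-fold dilutions (final 0.2 nM to 10 μM). Viability read by CellTiter-Glo luminescence 120 h after treatment, triplicate tests. GI50 derived from growth rate (%) versus control.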

The subject of assay [2] is N-87 cancer cells. As to the kind of experiment: Inhibition of N-87 cell proliferation (CellTiter-Glo). It is filed as cell-based. The settings on record: N-87 cells, 72 hours. The method, then:
N-87 cancer cells were cultured by using RPMI-1640 medium with 10% FBS. The N-87 cancer cells were seeded to a white clear bottom 96 well plate (Corning) at 5,000 cells per well 24 hours before the […] cancer cells were treated with Example Compounds. Example Compounds were diluted in dimethylsulfoxide (5-fold diluted, total 11 concentrations) and 0.5 μL each was injected so that the final concentration was […]. For the measurement of living cells, the cells were stored at room temperature for 10 minutes using the CellTiter-Glo cell viability reagent (Promega) after 72 hours after the treatment of Example Compounds, and then the luminescence intensity was measured using the reader (SynergyNeo, Biotek).
The result value was calculated as a cell growth rate (%) compared to a control group. Graphs were plotted and GI50 values were calculated using the GraphPad Prism version 8.0 program, and the results are shown in Table 18 below.

SMILES strings stand for the structures.

In general, GI50 refers to the concentration at which growth is held to half of that of the control.

Consider `C=CC(=O)N1CCC(Nc2cc3c(Nc4cc(C)c(Oc5ccn6ncnc6c5)cc4OC)ncnc3cc2OC)CC1` [Example 1, 1-(4-((4-((4-([1,2,4]triazolo[1,5-a]pyridin-7-yloxy)-2-methoxy-5-methylphenyl)amino)-7-methoxyquinazolin-6-yl)amino)piperidin-1-yl)prop-2-en-1-one], for which the GI50 in assay [1] and in assay [2] was ≤ 50 nM in each case.

In the case of `C=CC(=O)N1CCC(Nc2cc3c(Nc4cc(Cl)c(Oc5ccccn5)cc4OC)ncnc3cc2OC)CC1` [Example 3, 1-(4-((4-((5-chloro-2-methoxy-4-(pyridin-2-yloxy)phenyl)amino)-7-methoxyquinazolin-6-yl)amino)piperidin-1-yl)prop-2-en-1-one], the GI50 in assay [1] and in assay [2] was ≤ 50 nM throughout.

Take `C=CC(=O)N1CCC(Oc2cc3c(Nc4cc(Cl)c(Oc5ccn6ncnc6c5)cc4OC)ncnc3cc2OC)CC1` [Example 5, 1-(4-((4-((4-([1,2,4]triazolo[1,5-a]pyridin-7-yloxy)-5-chloro-2-methoxyphenyl)amino)-7-methoxyquinazolin-6-yl)oxy)piperidin-1-yl)prop-2-en-1-one]: the GI50 in assay [1] and in assay [2] was ≤ 50 nM each time.

On to `C=CC(=O)N1CCC(Oc2cc3c(Nc4cc(Cl)c(Oc5cccc(F)c5)cc4OC)ncnc3cc2OC)C(F)C1` (stereo not drawn) [Example 6, 1-(4-((4-((5-chloro-4-(3-fluorophenoxy)-2-methoxyphenyl)amino)-7-methoxyquinazolin-6-yl)oxy)-3-fluoropiperidin-1-yl)prop-2-en-1-one], for which the GI50 in assay [1] and in assay [2] was ≤ 50 nM each time.

In the case of `C=CC(=O)N1CCC(Oc2cc3c(Nc4ccc(Oc5cccc(F)c5)cc4OC)ncnc3cc2OC)CC1` [Example 7, 1-(4-((4-((4-(3-fluorophenoxy)-2-methoxyphenyl)amino)-7-methoxyquinazolin-6-yl)oxy)piperidin-1-yl)prop-2-en-1-one], the GI50 in assay [1] and in assay [2] was ≤ 50 nM each time.

`COc1cc2ncnc(Nc3cc(C)c(Oc4ccn5ncnc5c4)cc3OC)c2cc1NC(=O)/C(F)=C/[C@H]1CCCN1` [Example 135, (R,Z)—N-(4-((4-([1,2,4]triazolo[1,5-a]pyridin-7-yloxy)-2-methoxy-5-methylphenyl)amino)-7-methoxyquinazolin-6-yl)-2-fluoro-3-(pyrrolidin-2-yl)acrylamide]: the 50% growth inhibitory concentration (GI50) in assay [1] was ≤ 50 nM.

For `COc1cc2ncnc(Nc3cc(C4CC4)c(Oc4ccn5ncnc5c4)cc3OC)c2cc1NC(=O)/C(F)=C/[C@H]1CCCN1C` [Example 137, (R,Z)—N-(4-((4-([1,2,4]triazolo[1,5-a]pyridin-7-yloxy)-5-cyclopropyl-2-methoxyphenyl)amino)-7-methoxyquinazolin-6-yl)-2-fluoro-3-(1-methylpyrrolidin-2-yl)acrylamide], the GI50 in assay [1] fell in the range of 50 to 100 nM.

On to `COc1cc2ncnc(Nc3cc(Br)c(Oc4ccn5ncnc5c4)cc3OC)c2cc1NC(=O)/C(F)=C/[C@H]1CCCN1C` [Example 139, (R,Z)—N-(4-((4-([1,2,4]triazolo[1,5-a]pyridin-7-yloxy)-5-bromo-2-methoxyphenyl)amino)-7-methoxyquinazolin-6-yl)-2-fluoro-3-(1-methylpyrrolidin-2-yl)acrylamide], for which the 50% growth inhibitory concentration (GI50) in assay [1] was ≤ 50 nM.

For `COc1cc2ncnc(Nc3cc(Br)c(Oc4ccn5ncnc5c4)cc3OC)c2cc1NC(=O)/C(F)=C\[C@H]1CCCN1C` [Example 140, (R,E)-N-(4-((4-([1,2,4]triazolo[1,5-a]pyridin-7-yloxy)-5-bromo-2-methoxyphenyl)amino)-7-methoxyquinazolin-6-yl)-2-fluoro-3-(1-methylpyrrolidin-2-yl)acrylamide], the 50% growth inhibitory concentration (GI50) in assay [1] is ≤ 50 nM.

With `COc1cc(Oc2ccn3ncnc3c2)c(C)cc1Nc1ncnc2ccc(NC(=O)/C(F)=C/[C@H]3CCCN3C)c(Cl)c12` [Example 141, (R,Z)—N-(4-((4-([1,2,4]triazolo[1,5-a]pyridin-7-yloxy)-2-methoxy-5-methylphenyl)amino)-5-chloroquinazolin-6-yl)-2-fluoro-3-(1-methylpyrrolidin-2-yl)acrylamide], in assay [1], the GI50 was ≤ 50 nM.

Regarding `COc1cc2ncnc(Nc3cc(C)c(Oc4ccn5ncnc5c4)cc3OC)c2cc1NC(=O)/C(C#N)=C\C(C)(C)N1CCN(C2COC2)CC1` [Example 144, (Z)—N-(4-((4-([1,2,4]triazolo[1,5-a]pyridin-7-yloxy)-2-methoxy-5-methylphenyl)amino)-7-methoxyquinazolin-6-yl)-2-cyano-4-methyl-4-(4-(oxetan-3-yl)piperazin-1-yl)pent-2-enamide], in assay [1], the GI50 is > 500 nM.

Turning to `C=C(C(=O)Nc1cc2c(Nc3cc(C)c(Oc4ccn5ncnc5c4)cc3OC)ncnc2cc1OC)n1cccn1` [Example 147, N-(4-((4-([1,2,4]triazolo[1,5-a]pyridin-7-yloxy)-2-methoxy-5-methylphenyl)amino)-7-methoxyquinazolin-6-yl)-2-(1H-pyrazol-1-yl)acrylamide], the 50% growth inhibitory concentration (GI50) in assay [1] was in the range of 100 to 500 nM.

Turning to `[2H]C([2H])([2H])Oc1cc(Oc2ccn3ncnc3c2)c(C)cc1Nc1ncnc2cc(OC)c(NC(=O)/C=C/[C@H]3CCCN3C)cc12` [Example 148, (R,E)-N-(4-((4-([1,2,4]triazolo[1,5-a]pyridin-7-yloxy)-2-(methoxy-d3)-5-methylphenyl)amino)-7-methoxyquinazolin-6-yl)-3-(1-methylpyrrolidin-2-yl)acrylamide], the GI50 in assay [1] was ≤ 50 nM.

For `[2H]C([2H])([2H])Oc1cc(Oc2ccn3ncnc3c2)c(C)cc1Nc1ncnc2cc(OC)c(NC(=O)/C(F)=C/[C@H]3CCCN3C)cc12` [Example 149, (R,Z)—N-(4-((4-([1,2,4]triazolo[1,5-a]pyridin-7-yloxy)-2-(methoxy-d3)-5-methylphenyl)amino)-7-methoxyquinazolin-6-yl)-2-fluoro-3-(1-methylpyrrolidin-2-yl)acrylamide], in assay [1], the concentration for 50% growth inhibition (GI50) was ≤ 50 nM.

On to `[2H]C([2H])([2H])Oc1cc(Oc2ccn3ncnc3c2)c(C)cc1Nc1ncnc2cc(OC)c(NC(=O)/C(F)=C\[C@H]3CCCN3C)cc12` [Example 150, (R,E)-N-(4-((4-([1,2,4]triazolo[1,5-a]pyridin-7-yloxy)-2-(methoxy-d3)-5-methylphenyl)amino)-7-methoxyquinazolin-6-yl)-2-fluoro-3-(1-methylpyrrolidin-2-yl)acrylamide], for which the GI50 in assay [1] is ≤ 50 nM.

On to `[2H]C([2H])([2H])Oc1cc(Oc2ccn3ncnc3c2)c(F)cc1Nc1ncnc2cc(OC)c(NC(=O)/C(F)=C/[C@H]3CCCN3C)cc12` [Example 151, (R,Z)—N-(4-((4-([1,2,4]triazolo[1,5-a]pyridin-7-yloxy)-5-fluoro-2-(methoxy-d3)phenyl)amino)-7-methoxyquinazolin-6-yl)-2-fluoro-3-(1-methylpyrrolidin-2-yl)acrylamide], for which, in assay [1], the 50% growth inhibitory concentration (GI50) is ≤ 50 nM.

As for `[2H]C([2H])([2H])Oc1cc(Oc2ccn3ncnc3c2)c(F)cc1Nc1ncnc2cc(OC)c(NC(=O)/C(F)=C\[C@H]3CCCN3C)cc12` [Example 152, (R,E)-N-(4-((4-([1,2,4]triazolo[1,5-a]pyridin-7-yloxy)-5-fluoro-2-(methoxy-d3)phenyl)amino)-7-methoxyquinazolin-6-yl)-2-fluoro-3-(1-methylpyrrolidin-2-yl)acrylamide], the concentration for 50% growth inhibition (GI50) in assay [1] is ≤ 50 nM.

`[2H]C([2H])([2H])N1CCC[C@@H]1/C=C/C(=O)Nc1cc2c(Nc3cc(C)c(Oc4ccn5ncnc5c4)cc3OC)ncnc2cc1OC` [Example 153, (R,E)-N-(4-((4-([1,2,4]triazolo[1,5-a]pyridin-7-yloxy)-2-methoxy-5-methylphenyl)amino)-7-methoxyquinazolin-6-yl)-3-(1-(methyl-d3)pyrrolidin-2-yl)acrylamide]: the 50% growth inhibitory concentration (GI50) in assay [1] is ≤ 50 nM.

In the case of `[2H]C([2H])([2H])N1CCC[C@@H]1/C=C(\F)C(=O)Nc1cc2c(Nc3cc(C)c(Oc4ccn5ncnc5c4)cc3OC)ncnc2cc1OC` [Example 154, (R,Z)—N-(4-((4-([1,2,4]triazolo[1,5-a]pyridin-7-yloxy)-2-methoxy-5-methylphenyl)amino)-7-methoxyquinazolin-6-yl)-2-fluoro-3-(1-(methyl-d3)pyrrolidin-2-yl)acrylamide], the GI50 in assay [1] was ≤ 50 nM.

On to `[2H]C([2H])([2H])N1CCC[C@@H]1/C=C(\F)C(=O)Nc1cc2c(Nc3cc(F)c(Oc4ccn5ncnc5c4)cc3OC)ncnc2cc1OC` [Example 155, (R,Z)—N-(4-((4-([1,2,4]triazolo[1,5-a]pyridin-7-yloxy)-5-fluoro-2-methoxyphenyl)amino)-7-methoxyquinazolin-6-yl)-2-fluoro-3-(1-(methyl-d3)pyrrolidin-2-yl)acrylamide], for which the GI50 in assay [1] was ≤ 50 nM.

`[2H]C([2H])([2H])N1CCC[C@@H]1/C=C(\F)C(=O)Nc1cc2c(Nc3cc(Cl)c(Oc4ccn5ncnc5c4)cc3OC)ncnc2cc1OC` [Example 156, (R,Z)—N-(4-((4-([1,2,4]triazolo[1,5-a]pyridin-7-yloxy)-5-chloro-2-methoxyphenyl)amino)-7-methoxyquinazolin-6-yl)-2-fluoro-3-(1-(methyl-d3)pyrrolidin-2-yl)acrylamide]: the 50% growth inhibitory concentration (GI50) in assay [1] was ≤ 50 nM.

On to `[2H]C([2H])([2H])N1CCC[C@@H]1/C=C(/F)C(=O)Nc1cc2c(Nc3cc(F)c(Oc4ccn5ncnc5c4)cc3OC)ncnc2cc1OC` [Example 157, (R,E)-N-(4-((4-([1,2,4]triazolo[1,5-a]pyridin-7-yloxy)-5-fluoro-2-methoxyphenyl)amino)-7-methoxyquinazolin-6-yl)-2-fluoro-3-(1-(methyl-d3)pyrrolidin-2-yl)acrylamide], for which, in assay [1], the GI50 was ≤ 50 nM.
